The record followed here is US20250009819A1, “NOVEL PROBIOTICS AND USE THEREOF” (PBLBIOLAB CO., LTD., priority 2021, published 2025).

What all share (type): in vivo, C57BL/6 male mice
Conditions in all cases: LPS-treated mice, 1×10^9 CFU/mouse or sulfasalazine 50 mg/kg once a day for 5 days

Experiment [1] concerns animals with LPS-induced cognitive impairment. In words: Animals with LPS-induced cognitive impairment: colitis improvement (colon). As for the experimental part:
To 100 mg of colon tissue, 200 μl of 10 mM potassium phosphate buffer (pH 7.0) containing 0.5% hexadecyl trimethyl ammonium bromide was added and homogenized. Then, the supernatant was obtained by centrifugation for 10 minutes at 4° C. and 10,000 g. A volume of 50 μl of the supernatant was added to 0.95 mk of reaction solution (containing 1.6 mM tetramethyl benzidine and 0.1 mM H2O2), reacted at 37° C., and absorbance was monitored over time at 650 nm.
(§1) Hippocampus, colon, and spleen tissues were homogenized by adding 1 ml of RIPA buffer (Gibco) containing protease inhibitor cocktail and centrifuged at 4° C., 13000 rpm for 15 min to obtain supernatant. Indicators of this supernatant were measured using an ELISA kit (Ebioscience).
(§2) C57BL/6 male mice (5 weeks old, 19-21 g) were divided (6 mice in each group) and acclimatized to the laboratory for 1 week. To induce intestinal and brain diseases, mice were intraperitoneally administered Escherichia coli-derived LPS (10 μg/kg) once daily for 5 days. […] Experimental animals in the normal group were orally administered with a physiological saline solution, which was used to suspend lactic acid bacteria. The day following the conclusion of sample administration, the experimental animals were sacrificed, and samples from the brain hippocampus, colon, and spleen were collected. In the Hippocampus, inflammatory indicators, such as IFN-γ, TNF-α, and IL-10, were measured using ELISA. In the colon, intestinal length and inflammatory indicators, such as IFN-γ, TNF-α, and IL-10, were measured. In the spleen, Th1 cells and Treg cells were measured by FACS (Fluorescence-Activated Cell Sorting).

The test system is the same in experiment [2]. The experiment can be described thus: Animals with LPS-induced cognitive impairment: improvement effect in spleen. As to the method:
as §1
mRNA was isolated from spleen tissue using the RNA Isolation Kit: RNeasy Mini Kit (QIAGEN), converted to cDNA, and qPCR was performed to measure the expression rates of Tbet, Foxp3, and glyceraldehyde 3-phosphate dehydrogenase (GAPDH). The reaction product was first treated at 95° C. for 30 seconds, followed by 38 cycles of 5 seconds at 95° C. and 30 seconds at 72° C. for analysis.
as §2

The test system is the same in experiment [3]. The experiment can be described thus: Animals with LPS-induced cognitive impairment: cognitive improvement, hippocampus indicators. As for the experimental part: as §1
The Y-shaped maze measurement device is shaped like an alphabetical Y with three arms extending from it, each arm being 25 cm long, 14 cm high, 5 cm wide, and positioned at the same angle. At the end of one arm of the Y-shaped maze, the animal was placed with its head facing out and allowed to freely navigate the arm for 8 minutes. The animal's movements were recorded, and reported as arm entries when the animal entered the arm with its hind paw, and the animal's movement was represented by an alternation, which was defined as one alternation when the animal passed through the three arms in succession. The amount of spontaneous alternation behavior was expressed as a percentage between the actual number of alternations and the maximum possible number of alternations (i.e., the total number of […] minus 2).
The experiment was conducted in a box (40×40×40 cm) made so that the outside could not be seen from the inside. Two objects (A, A′) of the same shape and size were fixedly disposed in a box and the mouse was relocated to start from the center of the box. Then, the number of times the mouse made contact with the two objects was recorded for 10 minutes. After 24 hours, one of the two objects was replaced with a new object (A, B). Then, one original object and one new object were prepared, and the animal's exploration time was measured.
as §2

Molecules are shown by their SMILES.

For `O=C(O)c1cc(/N=N/c2ccc(S(=O)(=O)Nc3ccccn3)cc2)ccc1O` [Sulfasalazine, sulfasalazine, reference compound], in experiment [1], the “Colon (cm)” value is 5.0 cm, the IFN-γ/IL-10 turned out to be 2.85, the IL-10 is 15.91 pg/mg and the “Interferon (IFN)-γ” value is listed as 45.4 pg/mg. In experiment [1], this compound yielded an MPO activity of 4.75 μUnit/mg, a TNF-α of 20.1 pg/mg and a TNF-α/IL-10 of 1.26. The compound also displayed a Tbet/Foxp3 in experiment [2] (spleen qPCR) of 1.78. In experiment [2] (spleen), the IL-10 worked out at 9.78 pg/mg, the “Interferon (IFN)-γ” value is on record as 13.55 pg/mg, the “NK cell cytoxicity (%)” value was 7.92% and the “Phagocytosis (%)” value was determined as 39.59%. In addition, in experiment [2] (spleen), the TNF-α is recorded as 4.51 pg/mg and the TNF-α/IL-10 is listed as 0.13. For the same compound, in experiment [3], the “Exoporation (%) (in NOR task)” value was found to be 72.02% and the “Spontaneous alteration (%) (in Y-maze task)” value was determined as 69.21%. In addition, in experiment [3] (hippocampus), the IFN-γ/IL-10 is 0.60, the IL-10 worked out at 45.79 pg/mg, the “Interferon (IFN)-γ” value is given as 27.35 pg/mg and the TNF-α was 10.98 pg/mg. Also, in experiment [3] (hippocampus), the TNF-α/IL-10 was 0.24.
